According to patent US6268496A, “Certain imidazoquinoxalines: a new class of GABA brain receptor ligands” (Neurogen Corporation, priority 1999, dated 2001):

How the values were obtained:
[1] = tested on: benzodiazepine binding site; conditions: cited from earlier work
[2] = biological target: GABAa receptor; experiment: GABAa receptor activity: displacement of 3H-RO15-1788 (3H-Flumazenil) binding in rat cortical tissue homogenate; conditions: 0.5 nM 3H-RO15-1788 [3H-Flumazenil], 30 min at 4° C., pH 7.4
Protocol: Rat cortical tissue is dissected and homogenized in 25 volumes (w/v) of 0.05 M Tris HCl buffer (pH 7.4 at 4° C.). The tissue homogenate is centrifuged in the cold (4°) at 20,000×g for 20'. The supernatant is decanted and the pellet is rehomogenized in the same volume of buffer and again centrifuged at 20,000×g. The supernatant is decanted and the pellet is frozen at -20° C. overnight. The pellet is then thawed and rehomogenized in 25 volume (original wt/vol) of buffer and the procedure is carried out twice. The pellet is finally resuspended in 50 volumes (w/vol of 0.05 M Tris HCl buffer (pH 7.4 at […]).
Incubations are carried for 30 min at 4° C. then are rapidly filtered through GFB filters to separate free and bound ligand. Filters are washed twice with fresh 0.05 M Tris HCl buffer (pH 7.4 at 4° C.) and counted in a liquid scintillation counter. […] diazepam is added to some tubes to determine nonspecific binding. Data are collected in triplicate determinations, averaged and % inhibition of total specific binding is calculated. Total Specific Binding=Total-Nonspecific. In some cases, the amounts of unlabeled drugs is varied and total displacement curves of binding are carried out. Data are converted to a form for the calculation of IC50 and Hill Coefficient (nH).

Row | SMILES | IC50 [2] | other results
1 | CN1CCc2cc3c(cc2[C@@H]1[C@H]1OC(=O)c2c1ccc1c2OCO1)OCO3 [(-) bicuculline] | – | block of the enhancement of benzodiazepine binding by GABA agonists [1]: much less active
2 | COc1ccc(-n2c(=O)c3c[nH]c4ccc(Br)cc4n-3c2=O)cc1 [Compound 33, 8-Bromo-2-(4-methoxyphenyl)-imidazo[1,5,a]quinoxaline-1,3(2H,5H)-dione] | 2.4 nM | –
3 | NCCCC(=O)O [GABA, γ-Aminobutyric acid] | – | effect on binding of benzodiazepines ([1]; low affinity (1 mM) GABA binding site): enhance the binding of benzodiazepines
4 | O=c1c2c[nH]c3ccccc3n-2c(=O)n1-c1ccccc1 [Compound 1, 2-Phenyl-imidazo[1,5-a]quinoxaline-1,3(2H,5H)-dione] | 9.5 nM | –
5 | Cc1ccc(-n2c(=O)c3c[nH]c4ccccc4n-3c2=O)cc1 [Compound 5, 2-(4-Methylphenyl)-imidazo[1,5,a]quinoxaline-1,3(2H,5H)-dione] | 16 nM | –
6 | CN1CCc2cc3c(cc2[C@H]1[C@@H]1OC(=O)c2c1ccc1c2OCO1)OCO3 [(+) bicuculline] | – | block of the enhancement of benzodiazepine binding by GABA agonists [1]: blocked
7 | CCOc1ccc(-n2c(=O)c3c[nH]c4ccccc4n-3c2=O)cc1 [Compound 3, 2-(4-ethoxyphenyl)-imidazo[1,5,a]quinoxaline-1,3(2H,5H)-dione] | 15 nM | –
8 | COc1ccc(-n2c(=O)c3c[nH]c4ccccc4n-3c2=O)cc1 [Compound 4, 2-(4-Methoxyphenyl)-imidazo[1,5,a]quinoxaline-1,3(2H,5H)-dione] | 9.5 nM | –
